Source: paper PMC3828658 (Organic & biomolecular chemistry, 2013)
“Also recorded” adds a separate entry of the source.

Legend:
[1] = system: HeLa cells; experiment: Lactate production inhibition in HeLa cells quantified by GC-MS; format: cell-based, human; conditions: 8 hours; for effect on lactate production: 50-200 μM
[2] = system: HeLa cells; experiment: Anticancer potency, 72 hour Sulforhodamine B assay; format: cell-based, human; conditions: for cell death: HeLa cells, 100 μM, 72 hours; for IC50: Homo sapiens, HeLa, 72 h, read-out: Anticancer potency, 72 hour IC50
[3] = system: WT-MEF; experiment: Growth inhibition in non-cancerous immortalized cell line, SRB assay; format: cell-based; conditions: 100 μM, 72 hours, preliminary
[4] = target: T1, LDH-A (Homo sapiens, UniProt P00338); experiment: Enzyme kinetics, NADH-competition, mixed-model inhibition fit; format: biochemical
[5] = Stability; format: in vitro ADME; conditions: RPMI 1640 growth media, 30 min at 37 °C, 100 μM
[6] = system: HeLa cells; experiment: Intracellular concentration / cellular uptake by LC-MS; format: cell-based, human; conditions: 500 μM, 30 minutes
[7] = Stability; format: in vitro ADME, human; conditions: 30 min at 37 °C, 100 μM
[8] = target: T1, LDH-A; experiment: Enzyme inhibition of purified human LDH-A; format: biochemical
[9] = system: LDH-A; conditions: read-out: LDH-A IC50 reported in the literature; cited from earlier work
[10] = cited from earlier work

Compound | cell death [2] [%] | IC50 [2] [µM] | cell death [3] | Ki [4] [µM] | stability / cleavage in culture media [5] | cleavage in HeLa cell lysate [7] | effect on lactate production [1] | cellular uptake in HeLa cells ([6]; LC-MS) | other results
O=C(O)c1cc2c(C(F)(F)F)cc(-c3ccccc3)cc2n1O [Compound 1, 1-Hydroxy-6-phenyl-4-(trifluoromethyl)-1H-indol-2-carboxylic acid] | 100 | 43.8 | less than 20% | 10.8 |  |  |  |  | lactate production relative to vehicle ([1]; 100 μM): 70%
COC(=O)c1cc2c(C(F)(F)F)cc(-c3ccccc3)cc2n1O [Compound 2, methyl 1-hydroxy-6-phenyl-4-(trifluoromethyl)-1H-indol-2-carboxylate] | 100 | 33.4 | approximately 70% |  | not appreciably cleaved | not appreciably cleaved |  |  | lactate production relative to vehicle ([1]; 200 μM): ~ 20%; concentration in HeLa cell lysate solution relative to free acid 1 ([6]; LC-MS): ~ 4 fold; cleavage of methyl ester following cellular incubation ([6]; HeLa cells): No cleavage
Cc1nc2ccc(NC(=O)CCNC(=O)CCCc3ccc(CC(C(=O)O)C(=O)O)cc3)cc2s1 [Compound 3, 2-(4-(4-((3-((2-methylbenzo[d]thiazol-6-yl)amino)-3-oxopropyl)amino)-4-oxobutyl)benzyl)malonic acid, reference compound] |  | > 500 |  | 0.23 |  |  | did not show any effect | could not be detected in lysate | IC50 [8]: 1 ± 0.2 µM; IC50 [9]: 0.5 µM; activity in cell-based assays (literature) [10]: inactive
COC(=O)C(Cc1ccc(CCCC(=O)NCCC(=O)Nc2ccc3nc(C)sc3c2)cc1)C(=O)OC [Compound 4, dimethyl 2-(4-(4-((3-((2-methylbenzo[d]thiazol-6-yl)amino)-3-oxopropyl)amino)-4-oxobutyl)benzyl)malonate, reference compound] |  | 75.4 |  |  | stable; also recorded: not appreciably cleaved | substantially cleaved to compound 5 | significant reduction | efficient cell uptake | LDH-A (IC50) [NADH] ([8]; NADH-competition assay: 1440 μM sodium pyruvate, 40 μM NADH, mean ± SD): lack of inhibitory potency; monohydrolysis to monoester 5 in HeLa cell lysate [7]: ~ 50%
COC(=O)C(Cc1ccc(CCCC(=O)NCCC(=O)Nc2ccc3nc(C)sc3c2)cc1)C(=O)O (stereo not drawn) [Compound 5, 3-Methoxy-2-(4-(4-((3-((2-methylbenzo[d]thiazol-6-yl)amino)-3-oxopropyl)amino)-4-oxobutyl)benzyl)-3-oxopropanoic acid] |  |  |  |  |  |  | failed to result in any substantial reduction | no direct cell uptake | cell death in HeLa cells ([2]; 72 hour treatment, up to 200 μM): No substantial cell death
